According to patent US11958860B2, “Crystal form of compound, and preparation method therefor and use thereof” (JIANGSU KANION PHARMACEUTICAL CO., LTD., priority 2021, dated 2024):

Assays:
Assay type in all cases: physicochemical
[1] = Transformation experiment between crystal forms (heating); details: heating temperature 120 °C, heating time 40 min
Source text: Four crystal forms, such as Form A, Form B, Form C, and Form D, are experienced for mutual transformation experiment. Experimental conditions and results are as follows: […]

[2] = Dynamic vapor sorption (DVS) hygroscopicity test; details: for water loss percentage / water absorption percentage: 25 °C
Source text: Dynamic vapor sorption (DVS) test/hygroscopicity test is to quickly determine the increase and loss of sample moisture caused by a flowing carrier gas with a set relative humidity (RH). The sample is placed on a high-sensitivity and high-stability digital micro-balancer in a self-suspension state, and then the sorption/desorption of water vapor is detected by determining the increase/decrease of material mass, so as to determine the hygroscopicity of the sample.
In the present invention, test parameters of the DVS are as follows: device model: SMS DVS Intrinsic; 0-95% RH; temperature: 25° C.
A dynamic vapor sorption (DVS) device is used to investigate the moisture sorption and desorption of samples at a temperature of 25° C. and a relative humidity of 0-95%, so as to determine the hygroscopic sorption properties of different crystal forms.

[3] = Percentage of solvent or water in crystal form
Source text: Thermo gravimetric analysis (TGA for short) is an analysis technique to determine the change of mass of substances with temperature under conditions of programmed temperature control. […] Thus, such thermo gravimetric analysis is suitable for detecting the loss of crystallization solvents or crystallization water molecules in crystalline substances or the process and magnitude of sublimation and decomposition of the sample, and can also effectively distinguish whether the substances contain the crystallization solvents or the crystallization water molecules.
In the present invention, test parameters of the TGA are as follows: device model: Netzsch TG 209F3; temperature range: 30-400° C.; scanning rate: 10 k/min; purge gas: 25 ml/min; and protective gas: 15 mL/min.

[4] = Comparison of crystal form stability (equilibrated suspension); details: conclusion from the crystal transformation results (Tables 2 and 3)
Method: 5 mg of each sample is taken and mixed with 1 ml of a solvent at 25° C. Experimental conditions and results are as follows: […]

Row | Structure (SMILES) | Crystal form of product [1] | water loss percentage ([2]; RH 65%) | water loss percentage ([2]; RH 80%) | Percentage of solvent or water [3] [%] | water absorption percentage ([2]; RH 65%) | water absorption percentage ([2]; RH 80%) | relative stability of crystal forms [4] | change in hygroscopicity and weight (DVS) ([2]; relative humidity of 0-95%, FIG. 5)
1 | COc1cc2c(cc1OC)CN1CCc3cc4c(cc3C1C2)OCO4 (single isomer, unassigned) [Form B, S-(−)-2,3-methylenedioxy-5,8,13,13a-tetrahydro-10,11-dimethoxy-6H-dibenzo[a, g]quinolizine] | Form A | percentage (0.2%) | percentage (0.3%) | 10.8 |  |  |  | 
2 | COc1cc2c(cc1OC)CN1CCc3cc4c(cc3C1C2)OCO4 (single isomer, unassigned) [Form C, S-(−)-2,3-methylenedioxy-5,8,13,13a-tetrahydro-10,11-dimethoxy-6H-dibenzo[a, g]quinolizine] | Form A |  |  | 4.4 | percentage (0.5%) | percentage (1.2%) |  | 
3 | COc1cc2c(cc1OC)CN1CCc3cc4c(cc3C1C2)OCO4 (single isomer, unassigned) [Form D, S-(−)-2,3-methylenedioxy-5,8,13,13a-tetrahydro-10,11-dimethoxy-6H-dibenzo[a, g]quinolizine] | Form A |  |  | 0.0 | percentage (0.2%) | percentage (0.3%) |  | 
4 | COc1cc2c(cc1OC)CN1CCc3cc4c(cc3[C@@H]1C2)OCO4 [Form A, S-(−)-2,3-methylenedioxy-5,8,13,13a-tetrahydro-10,11-dimethoxy-6H-dibenzo[a, g]quinolizine] | Form A |  |  | 0.0 | percentage (0.1%) | percentage (0.2%) | most stable crystal form | approximately 0.6%
